Measured values from patent US6977261B2, “Azaisoquinoline derivatives as matrix metalloproteinase inhibitors” (Warner-Lambert Company LLC, priority 2002, dated 2005).

Biological target: human MMP-13 catalytic domain (hMMP-13CD) (Homo sapiens, UniProt P45452)
Test: Inhibition of MMP-13 catalytic domain (thiopeptolide substrate assay)
Format: biochemical
Source text: The assays measure the amount by which a test compound reduces the hydrolysis of a thiopeptolide substrate catalyzed by a matrix metalloproteinase enzyme. Such assays are described in detail by Ye et al., in Biochemistry, 1992;31(45):11231-11235, which is incorporated herein by reference. One such assay is described below in Biological Method 1.
Some of the particular methods described below use the catalytic domain of the MMP-13 enzyme, namely matrix metalloproteinase-13 catalytic domain (“MMP-13CD”), rather than the corresponding full-length enzyme, MMP-13. It has been shown previously by Ye Qi-Zhuang, Hupe D., and Johnson L. (Current Medicinal Chemistry, 1996;3:407-418) that inhibitor activity against a catalytic domain of an MMP is predictive of the inhibitor activity against the respective full-length MMP enzyme.
Thiopeptolide substrates show virtually no decomposition or hydrolysis at or below neutral pH in the absence of a matrix metalloproteinase enzyme. A typical thiopeptolide substrate commonly utilized for assays is Ac-Pro-Leu-Gly-thioester-Leu-Leu-Gly-OEt. […] The change in absorbance at 405 nm is monitored on a Thermo Max microplate reader (molecular Devices, Menlo Park, Calif.) at room temperature (22° C.). […]
Some representative compounds of Formula I have been evaluated for their ability to inhibit MMP-13. […]

IC50: > 50 µM
SMILES: O=C(O)c1ccc(Cn2ccc3ccc(C#CCn4ccnn4)cc3c2=O)cc1 [4-[1-oxo-7-(3-[1,2,3]triazol-1-ylprop-1-ynyl)-1H-isoquinolin-2-ylmethyl]benzoic acid]
